From patent US10131652B2, “Pyrimidinyloxy benzene derivatives as herbicides” (E. I. DU PONT DE NEMOURS AND COMPANY, priority 2014, dated 2018)
Read-outs that look alike come from different tables or passages of the source.

Assays:
Type in all cases: in vivo
[1] = tested on: giant foxtail (Setaria faberii); assay: Test B pre-/postemergence plant response; details: Setaria faberi, 240 h, read-out: Plant response rating, Foxtail, Giant; for pest or weed control at 125 g/ha: 125 g ai/ha; for pest or weed control at 500 g/ha: 500 g ai/ha
Method in brief: (§1)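 Steps: plant seeds in loam soil–sand mix; spray soil preemergence, and in parallel spray 2–10 cm one- to two-leaf plants postemergence; hold ~10 days in greenhouse; visually rate injury against untreated controls (0 = no effect, 100 = complete control).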

[2] = tested on: pigweed (Amaranthus retroflexus); assay: Test B pre-/postemergence plant response; details: Amaranthus retroflexus, 240 h, read-out: Plant response rating, Pigweed; for pest or weed control at 125 g/ha: 125 g ai/ha; for pest or weed control at 500 g/ha: 500 g ai/ha
Method in brief: as §1

[3] = tested on: barnyardgrass (Echinochloa crus-galli); assay: Test B pre-/postemergence plant response; details: Echinochloa crus-galli, 240 h, read-out: Plant response rating, Barnyardgrass; for pest or weed control at 125 g/ha: 125 g ai/ha; for pest or weed control at 500 g/ha: 500 g ai/ha
Method in brief: as §1

corn (Zea mays) = assay: Test B pre-/postemergence plant response; details: Zea mays, 240 h; for Corn plant response rating (crop injury, 0 = no effect, 100 = complete kill) at 125 g/ha: 125 g ai/ha; for Corn plant response rating (crop injury, 0 = no effect, 100 = complete kill) at 500 g/ha: 500 g ai/ha
Method in brief: as §1

[4] = tested on: wheat (Triticum aestivum); assay: Test B pre-/postemergence plant response; details: Triticum aestivum, 240 h, read-out: Plant response rating, Wheat; for plant injury at 125 g/ha: 125 g ai/ha; for plant injury at 500 g/ha: 500 g ai/ha
Method in brief: as §1

[5] = tested on: ragweed (common ragweed, Ambrosia elatior); assay: Test D pre-/postemergence plant response; details: Ambrosia artemisiifolia, pre-emergence, Preemergence, scale 0 to 100 (0 no effect, 100 complete control), read-out: Plant response rating, Ragweed
Method in brief: (§2)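 Seeds were planted in a loam and sand blend and sprayed preemergence. In parallel, seedlings grown in peat moss/vermiculite medium were sprayed postemergence at 2 to 18 cm height. Both used a surfactant-containing non-phytotoxic solvent. Greenhouse ratings at 13 to 15 days used a 0–100 control scale.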

[6] = tested on: winter wheat (Triticum aestivum); assay: Test D pre-/postemergence plant response; details: Triticum aestivum, pre-emergence, Preemergence, scale 0 to 100 (0 no effect, 100 complete control), read-out: Plant response rating, Wheat
Method in brief: as §2

[7] = tested on: johnsongrass (Sorghum halepense); assay: Test D pre-/postemergence plant response; details: Sorghum halepense, pre-emergence, Preemergence, scale 0 to 100 (0 no effect, 100 complete control), read-out: Plant response rating, Johnsongrass
Method in brief: as §2

[8] = tested on: yellow nutsedge (Cyperus esculentus); assay: Test D pre-/postemergence plant response; details: Cyperus, pre-emergence, Preemergence, scale 0 to 100 (0 no effect, 100 complete control), read-out: Plant response rating, Nutsedge, Yellow
Method in brief: as §2

[9] = tested on: galium (catchweed bedstraw, Galium aparine); assay: Test D pre-/postemergence plant response; details: Galium, pre-emergence, Preemergence, scale 0 to 100 (0 no effect, 100 complete control), read-out: Plant response rating, Galium
Method in brief: as §2

[10] = tested on: oilseed rape (Brassica napus); assay: Test D pre-/postemergence plant response; details: Brassica napus, pre-emergence, Preemergence, scale 0 to 100 (0 no effect, 100 complete control), read-out: Plant response rating, Oilseed Rape
Method in brief: as §2

[11] = tested on: ducksalad (Heteranthera limosa); assay: Test C flooded paddy test plant response; details: Heteranthera limosa; Flood, 250 g ai/ha; scale of 0 to 100 where 0 is no effect and 100 is complete control; 13 to 15 days; read-out: Ducksalad plant response rating
Method in brief: (§3)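 Readout is a visual 0–100 score (100 = complete control) versus controls at 13–15 days. Plants at 2-leaf stage, flooded to 3 cm, treated through paddy water.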

[12] = tested on: barnyardgrass (Echinochloa crus-galli); assay: Test C flooded paddy test plant response; details: Echinochloa crus-galli; Flood, 250 g ai/ha; scale of 0 to 100 where 0 is no effect and 100 is complete control; 13 to 15 days; read-out: Barnyardgrass plant response rating
Method in brief: as §3

[13] = tested on: small-flower umbrella sedge (Cyperus difformis); assay: Test C flooded paddy test plant response; details: Cyperus difformis; Flood, 250 g ai/ha; scale of 0 to 100 where 0 is no effect and 100 is complete control; 13 to 15 days; read-out: Sedge, Umbrella plant response rating
Method in brief: as §3

rice (Oryza sativa) = assay: Test C flooded paddy test plant response; details: Oryza sativa; Flood, 250 g ai/ha; scale of 0 to 100 where 0 is no effect and 100 is complete control; 13 to 15 days; read-out: Rice plant response rating
Method in brief: as §3

[14] = post-emergence, postemergence, 0 to 100 scale, 0 no effect, 100 complete control
[15] = post-emergence, Postemergence, 0 to 100 scale (0 no effect, 100 complete control)
[16] = pre-emergence, Preemergence, 0 to 100 scale where 0 is no effect and 100 is complete control

## FCc1cc(-c2ccccc2Oc2ncc(Cl)cn2)no1 [Compound 32, 5-chloro-2-[2-[5-(fluoromethyl)-3-isoxazolyl]phenoxy]pyrimidine]
[1]; [14]
  pest or weed control at 125 g/ha: 70%
[1]; [15]
  pest or weed control at 500 g/ha: 90%
[1]; [16]
  pest or weed control at 125 g/ha: 90%
  pest or weed control at 500 g/ha: 100%
[2]; [14]
  pest or weed control at 125 g/ha: 100%
[2]; [15]
  pest or weed control at 500 g/ha: 100%
[2]; [16]
  pest or weed control at 125 g/ha: 100%
  pest or weed control at 500 g/ha: 100%
[3]; [14]
  pest or weed control at 125 g/ha: 70%
[3]; [15]
  pest or weed control at 500 g/ha: 90%
[3]; [16]
  pest or weed control at 125 g/ha: 90%
  pest or weed control at 500 g/ha: 90%
Corn (Zea mays); [14]
  Corn plant response rating (crop injury, 0 = no effect, 100 = complete kill) at 125 g/ha: 10%
Corn (Zea mays); [15]
  Corn plant response rating (crop injury, 0 = no effect, 100 = complete kill) at 500 g/ha: 50%
Corn (Zea mays); [16]
  Corn plant response rating (crop injury, 0 = no effect, 100 = complete kill) at 125 g/ha: 0%
  Corn plant response rating (crop injury, 0 = no effect, 100 = complete kill) at 500 g/ha: 0%
[4]; [14]
  plant injury at 125 g/ha: 30%
[4]; [15]
  plant injury at 500 g/ha: 60%
[4]; [16]
  plant injury at 125 g/ha: 0%
  plant injury at 500 g/ha: 10%
[5]; 8 g ai/ha
  pest or weed control at 8 g/ha: 75%
[5]; 16 g ai/ha
  pest or weed control at 16 g/ha: 60%
[5]; 31 g ai/ha
  pest or weed control at 31 g/ha: 75%
[5]; 62 g ai/ha
  pest or weed control at 62 g/ha: 70%
[6]; 8 g ai/ha
  plant injury at 8 g/ha: 0%
[6]; 16 g ai/ha
  plant injury at 16 g/ha: 0%
[6]; 31 g ai/ha
  plant injury at 31 g/ha: 0%
[6]; 62 g ai/ha
  plant injury at 62 g/ha: 5%
[7]; 8 g ai/ha
  pest or weed control at 8 g/ha: 0%
[7]; 16 g ai/ha
  pest or weed control at 16 g/ha: 45%
[7]; 31 g ai/ha
  pest or weed control at 31 g/ha: 75%
[7]; 62 g ai/ha
  pest or weed control at 62 g/ha: 85%
[8]; 8 g ai/ha
  pest or weed control at 8 g/ha: 60%
[8]; 16 g ai/ha
  pest or weed control at 16 g/ha: 65%
[8]; 31 g ai/ha
  pest or weed control at 31 g/ha: 0%
[8]; 62 g ai/ha
  pest or weed control at 62 g/ha: 25%
[9]; 8 g ai/ha
  pest or weed control at 8 g/ha: 0%
[9]; 16 g ai/ha
  pest or weed control at 16 g/ha: 25%
[9]; 31 g ai/ha
  pest or weed control at 31 g/ha: 65%
[9]; 62 g ai/ha
  pest or weed control at 62 g/ha: 75%
[10]; 8 g ai/ha
  plant injury at 8 g/ha: 50%
[10]; 16 g ai/ha
  plant injury at 16 g/ha: 80%
[10]; 31 g ai/ha
  plant injury at 31 g/ha: 100%
[10]; 62 g ai/ha
  plant injury at 62 g/ha: 100%
[11]
  pest or weed control at 250 g/ha: 90%
[12]
  pest or weed control at 250 g/ha: 0%
[13]
  pest or weed control at 250 g/ha: 85%
Rice (Oryza sativa)
  plant injury at 250 g/ha: 20%
